Measurements as given in ChEMBL document CHEMBL4346725, “Molecular design and anticancer activities of small-molecule monopolar spindle 1 inhibitors: A Medicinal chemistry perspective” (Eur J Med Chem, 2019).
Blank lines part the entries; values can stand above or below the molecule they belong to.

Columns and labels:
[1] = test system: A2780; assay: Antitumor activity against human A2780 cells xenografted in mouse assessed as tumor growth inhibition at 90 mg/kg, po daily administered for 7 consecutive days relative to control; format: functional; conditions: read-out: TGI
[2] = Oral bioavailability in mouse xenografted with human A2780 cells at 90 mg/kg daily administered for 7 consecutive days; format: ADME, organism-based; conditions: in vivo
[3] = Half life in mouse xenografted with human A2780 cells at 90 mg/kg, po daily administered for 7 consecutive days; format: ADME, organism-based; conditions: in vivo
[4] = target: T1, Dual specificity protein kinase TTK (Homo sapiens, UniProt P33981); assay: Inhibition of MPS1 (unknown origin)
T1 sequence (P33981 whole entry): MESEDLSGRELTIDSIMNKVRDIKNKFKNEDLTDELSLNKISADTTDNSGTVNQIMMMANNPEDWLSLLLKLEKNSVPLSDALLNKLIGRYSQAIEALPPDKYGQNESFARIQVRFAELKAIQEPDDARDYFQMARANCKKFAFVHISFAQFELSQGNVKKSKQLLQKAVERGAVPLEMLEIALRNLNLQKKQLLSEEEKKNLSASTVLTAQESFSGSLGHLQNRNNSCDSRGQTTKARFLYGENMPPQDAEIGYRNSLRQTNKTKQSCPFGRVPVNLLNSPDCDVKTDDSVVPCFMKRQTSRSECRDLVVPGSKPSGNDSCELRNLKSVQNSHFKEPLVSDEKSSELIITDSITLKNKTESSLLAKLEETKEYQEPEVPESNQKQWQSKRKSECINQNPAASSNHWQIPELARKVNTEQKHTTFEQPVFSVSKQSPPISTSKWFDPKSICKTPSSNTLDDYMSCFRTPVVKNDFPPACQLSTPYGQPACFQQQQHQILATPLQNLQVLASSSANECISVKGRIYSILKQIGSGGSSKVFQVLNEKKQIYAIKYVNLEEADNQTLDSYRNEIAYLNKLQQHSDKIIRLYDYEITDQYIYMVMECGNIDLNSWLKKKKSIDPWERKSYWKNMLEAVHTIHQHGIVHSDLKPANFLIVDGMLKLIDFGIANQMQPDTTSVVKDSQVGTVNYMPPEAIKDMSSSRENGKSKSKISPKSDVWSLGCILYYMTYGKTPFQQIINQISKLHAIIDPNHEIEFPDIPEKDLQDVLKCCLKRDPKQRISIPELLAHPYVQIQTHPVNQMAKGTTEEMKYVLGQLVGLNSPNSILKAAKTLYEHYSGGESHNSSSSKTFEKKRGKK

[5] = target: T1, Dual specificity protein kinase TTK; assay: Inhibition of MPS1 (510 to 857 residues) catalytic domain (unknown origin) expressed in Escherichia coli after 15 mins by mass-spectrometry analysis
[6] = target: Mitogen-activated protein kinase 9 (Homo sapiens) (UniProt P45984); assay: Inhibition of JNK2 (unknown origin) relative to control; conditions: concentration not given here
[7] = target: Mast/stem cell growth factor receptor Kit (Homo sapiens) (UniProt P10721); assay: Inhibition of KIT (unknown origin) relative to control; conditions: concentration not given here
[8] = target: Focal adhesion kinase 1 (Homo sapiens) (UniProt Q05397); assay: Inhibition of FAK (unknown origin) relative to control; conditions: concentration not given here
[9] = target: Mitogen-activated protein kinase 8 (Homo sapiens) (UniProt P45983); assay: Inhibition of JNK1 (unknown origin) relative to control; conditions: concentration not given here
[10] = test system: A549; assay: animal or person; conditions: Mus musculus, A549, po, read-out: TGI
[11] = test system: Mus musculus; assay: In vivo inhibition of MPS1 in mouse xenografted with human HCT116 cells at 100 mg/kg, po after 24 hrs by LC-MS analysis relative to control; format: functional; conditions: HCT-116, po
[12] = test system: MDA-MB-231; assay: Antiproliferative activity against human MDA-MB-231 cells after 7 days by cell titer-glo assay; format: functional, cell-based; conditions: MDA-MB-231, 168 h
[13] = Half life in mouse at 5 mg/kg, ip; format: ADME, organism-based; conditions: in vivo
[14] = Cmax in mouse at 5 mg/kg, iv; format: ADME, organism-based; parameters: dose 5 mg/kg, route intravenous; conditions: in vivo
[15] = Oral bioavailability in mouse at 5 mg/kg; format: ADME, organism-based; conditions: in vivo
[16] = Half life in mouse at 5 mg/kg, iv; format: ADME, organism-based; conditions: in vivo
[17] = Bioavailability in mouse at 5 mg/kg, ip; format: ADME, organism-based; conditions: in vivo
[18] = Cmax in mouse at 5 mg/kg, ip; format: ADME, organism-based; parameters: dose 5 mg/kg, route intraperitoneal; conditions: in vivo
[19] = Half life in mouse at 5 mg/kg, po; format: ADME, organism-based; conditions: in vivo
[20] = Cmax in mouse at 5 mg/kg, po; format: ADME, organism-based; parameters: dose 5 mg/kg, route oral; conditions: in vivo
[21] = test system: COLO 205; assay: animal or person; conditions: Mus musculus, COLO 205, ip, 96 h, read-out: TGI
[22] = test system: HCT-116; assay: animal or person; conditions: Mus musculus, HCT-116, ip, read-out: TGI
[23] = test system: HCT-116; assay: animal or person; conditions: Mus musculus, HCT-116, ip, 96 h, read-out: TGI
[24] = in vivo; conditions: mouse, ip, 150 mg/kg
[25] = target: T1, Dual specificity protein kinase TTK; assay: Inhibition of glioblastoma patient derived MPS1

Mitogen-activated protein kinase 8 (Homo sapiens), sequence (P45983 whole entry): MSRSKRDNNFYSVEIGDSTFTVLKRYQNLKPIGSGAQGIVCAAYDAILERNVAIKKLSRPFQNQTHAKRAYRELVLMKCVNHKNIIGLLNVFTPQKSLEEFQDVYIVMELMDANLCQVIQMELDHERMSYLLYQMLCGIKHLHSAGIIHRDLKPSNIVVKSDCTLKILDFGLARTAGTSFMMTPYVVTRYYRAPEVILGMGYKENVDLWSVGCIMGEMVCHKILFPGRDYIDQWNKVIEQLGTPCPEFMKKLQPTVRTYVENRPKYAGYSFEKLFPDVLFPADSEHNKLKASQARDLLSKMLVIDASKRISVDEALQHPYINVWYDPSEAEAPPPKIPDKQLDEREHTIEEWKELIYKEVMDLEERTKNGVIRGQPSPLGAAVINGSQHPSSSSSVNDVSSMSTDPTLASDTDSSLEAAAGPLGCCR
Mitogen-activated protein kinase 9 (Homo sapiens), sequence (P45984 whole entry, looked up): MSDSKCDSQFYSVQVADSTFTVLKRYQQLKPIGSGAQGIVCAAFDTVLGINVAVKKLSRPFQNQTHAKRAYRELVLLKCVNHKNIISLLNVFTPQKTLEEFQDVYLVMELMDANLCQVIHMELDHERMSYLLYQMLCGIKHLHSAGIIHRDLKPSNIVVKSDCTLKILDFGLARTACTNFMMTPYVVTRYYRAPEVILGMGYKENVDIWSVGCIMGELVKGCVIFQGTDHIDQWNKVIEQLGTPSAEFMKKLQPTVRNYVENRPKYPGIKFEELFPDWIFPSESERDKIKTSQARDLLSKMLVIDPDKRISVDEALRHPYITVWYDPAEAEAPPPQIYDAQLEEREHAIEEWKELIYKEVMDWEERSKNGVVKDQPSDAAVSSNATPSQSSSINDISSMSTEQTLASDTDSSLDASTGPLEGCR
Focal adhesion kinase 1 (Homo sapiens), sequence (Q05397 2-1052 limits assumed): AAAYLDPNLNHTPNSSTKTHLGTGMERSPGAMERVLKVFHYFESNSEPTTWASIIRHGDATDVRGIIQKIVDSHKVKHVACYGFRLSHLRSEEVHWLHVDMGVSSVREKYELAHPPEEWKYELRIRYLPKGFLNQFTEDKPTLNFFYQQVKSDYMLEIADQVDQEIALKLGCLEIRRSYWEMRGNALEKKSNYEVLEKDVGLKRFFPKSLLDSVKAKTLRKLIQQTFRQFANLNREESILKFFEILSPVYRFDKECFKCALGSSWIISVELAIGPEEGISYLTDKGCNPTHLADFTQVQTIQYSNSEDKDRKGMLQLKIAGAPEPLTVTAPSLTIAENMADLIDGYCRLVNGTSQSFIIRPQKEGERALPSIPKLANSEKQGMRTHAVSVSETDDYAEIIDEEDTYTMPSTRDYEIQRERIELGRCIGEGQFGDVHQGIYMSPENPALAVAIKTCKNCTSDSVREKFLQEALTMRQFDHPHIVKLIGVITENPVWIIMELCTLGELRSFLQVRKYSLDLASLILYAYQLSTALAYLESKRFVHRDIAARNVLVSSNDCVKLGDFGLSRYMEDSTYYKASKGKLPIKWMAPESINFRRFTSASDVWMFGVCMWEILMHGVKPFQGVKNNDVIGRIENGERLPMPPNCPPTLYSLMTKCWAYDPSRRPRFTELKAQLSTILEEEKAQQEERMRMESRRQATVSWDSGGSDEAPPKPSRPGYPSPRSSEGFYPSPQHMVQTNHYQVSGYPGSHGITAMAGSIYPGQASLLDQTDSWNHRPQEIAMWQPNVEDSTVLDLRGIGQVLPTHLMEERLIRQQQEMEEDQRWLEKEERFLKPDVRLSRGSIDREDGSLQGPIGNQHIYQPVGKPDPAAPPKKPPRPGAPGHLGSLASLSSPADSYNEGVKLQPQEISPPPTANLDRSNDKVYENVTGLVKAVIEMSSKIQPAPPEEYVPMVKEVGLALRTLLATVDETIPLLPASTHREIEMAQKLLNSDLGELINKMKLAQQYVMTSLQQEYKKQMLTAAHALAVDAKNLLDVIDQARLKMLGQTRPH
Mast/stem cell growth factor receptor Kit (Homo sapiens), sequence (P10721 whole entry): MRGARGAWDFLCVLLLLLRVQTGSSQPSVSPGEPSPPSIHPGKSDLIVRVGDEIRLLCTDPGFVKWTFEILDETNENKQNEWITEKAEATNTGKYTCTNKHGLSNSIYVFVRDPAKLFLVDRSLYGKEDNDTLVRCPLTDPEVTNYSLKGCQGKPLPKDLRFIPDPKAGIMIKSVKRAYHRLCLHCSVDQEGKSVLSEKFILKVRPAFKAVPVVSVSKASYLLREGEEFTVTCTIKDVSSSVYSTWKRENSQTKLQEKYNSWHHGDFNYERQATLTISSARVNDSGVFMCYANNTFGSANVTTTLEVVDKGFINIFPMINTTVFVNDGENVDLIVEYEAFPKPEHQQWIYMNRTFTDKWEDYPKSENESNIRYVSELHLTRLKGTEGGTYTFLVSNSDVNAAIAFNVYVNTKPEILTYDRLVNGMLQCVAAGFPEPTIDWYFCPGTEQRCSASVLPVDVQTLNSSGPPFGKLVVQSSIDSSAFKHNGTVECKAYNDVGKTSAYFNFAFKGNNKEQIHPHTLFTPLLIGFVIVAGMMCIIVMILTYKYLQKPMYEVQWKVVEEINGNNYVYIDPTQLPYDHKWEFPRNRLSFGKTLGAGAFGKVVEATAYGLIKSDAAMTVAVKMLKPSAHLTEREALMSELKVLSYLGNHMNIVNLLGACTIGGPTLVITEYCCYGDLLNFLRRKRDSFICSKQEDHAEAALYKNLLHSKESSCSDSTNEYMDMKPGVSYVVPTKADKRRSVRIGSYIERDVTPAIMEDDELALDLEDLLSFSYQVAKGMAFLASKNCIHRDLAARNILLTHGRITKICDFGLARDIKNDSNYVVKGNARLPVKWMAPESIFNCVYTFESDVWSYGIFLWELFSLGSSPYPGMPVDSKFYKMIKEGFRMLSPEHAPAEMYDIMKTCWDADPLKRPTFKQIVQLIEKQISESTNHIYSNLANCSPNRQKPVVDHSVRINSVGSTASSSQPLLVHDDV

bioavailability [2]: 37.9%
half-life [3]: 8 h
SMILES: CCc1cccc(CC)c1NC(=O)c1nn(C)c2c1CCc1cnc(Nc3ccc(C(=O)NC4CCN(C)CC4)cc3OC(F)(F)F)nc1-2
inhibition in vivo at 90 mg/kg [1]: 53%

IC50 [4]: 9 nM
SMILES: CC(C)CNc1nc(-c2cccc3ncccc23)cn2c(-c3ccc(C(=O)NC4CC4)cc3)cnc12

IC50 [5]: 5.5 nM
Ki [5]: < 0.5 nM
SMILES: Cc1nc(N2CCOCC2)ccc1Nc1nc(NC(C)(C)CO)c2c(C#N)c[nH]c2n1

inhibition [6]: > 40%
inhibition [7]: > 40%
inhibition [8]: > 40%
inhibition [9]: > 40%
SMILES: COc1cc(OC2CCN(C)CC2)ccc1Nc1ncc2c(n1)n(C1CCCC1)c(=O)n2C

IC50 [5]: 2.5 nM
Ki [5]: < 0.5 nM
IC50 [12]: 2 to 6 nM
SMILES: Cc1nc(N2CCOCC2)ccc1Nc1nc(NC2CCOCC2)c2c(C#N)c[nH]c2n1

IC50 [4]: 98 nM
SMILES: O=C1c2ccccc2-c2n[nH]c3cccc1c23

Continued, molecule first:

SMILES: CC(C)(C)Nc1nc(Nc2ccc(C(N)=O)cc2)cc(N)c1C#N
inhibition in vivo at 100 mg/kg [10]: 47%

SMILES: COc1cc(-c2cnn(C)c2)ccc1Nc1ncc2ccnc(N[C@@H](C)C(C)(C)C)c2n1
inhibition in vivo at 100 mg/kg [11]: > 80%

SMILES: CCc1cccc(CC)c1NC(=O)c1ccn2c1CCc1cnc(Nc3ccc(N4CCN(C)CC4)cc3OC)nc1-2
half-life [13]: 3.4 h
Cmax [14]: 3060 nM
bioavailability [15]: 45.2%
half-life [16]: 2.9 h
bioavailability [17]: 90.3%
Cmax [18]: 629 nM
half-life [19]: 3.9 h
Cmax [20]: 188 nM

SMILES: c1nc2nc(Nc3ccc(N4CCOCC4)cc3)nc(NC3CCCCC3)c2[nH]1 [REVERSINE]
inhibition in vivo at 150 mg/kg [21]: 63%
inhibition in vivo at 30 mg/kg [22]: 49%
inhibition in vivo at 150 mg/kg [23]: 74%
AUC at 96 h [24]: 0.786 ng·h/mL

SMILES: COc1cc(N2CCC(O)CC2)ccc1Nc1nc(Nc2ccccc2S(=O)(=O)C(C)C)c2nc[nH]c2n1
IC50 [25]: 50 nM
